Data published in article PMC4157643 (Journal of pharmaceutical sciences, 2012).
Where “and” joins values, the source holds several entries; their conditions need not be identical. Equal entries are not always repeated. Where two headings read alike, the source gives them in different places.

What was measured:
[1] = retina to scleral (R-S) direction, isolated rabbit RCS; ref [4]; cited from earlier work
[2] = ref [2],[4], cited from earlier work
[3] = ref Ameer et al., [10]; cited from earlier work
[4] = vitreous humor, two-compartment model, n=4
in vivo = settings: male, New Zealand white, rabbit

For `COc1ccc([C@@H]2CC(=O)c3c(O)cc(O[C@@H]4O[C@H](CO[C@@H]5O[C@@H](C)[C@H](O)[C@@H](O)[C@H]5O)[C@@H](O)[C@H](O)[C@H]4O)cc3O2)cc1O` [hesperidin, Hesperidin], the apparent permeability [1] is given as 1.51 ± 0.78 × 10^−6 cm/s, the “log P” value [2] is given as 1.79 and 1.78 and the oral bioavailability [3] is given as less than 25%. For the same molecule, the AUC ([4]; intravitreal dose 1.5 µg) was 651 ± 88 µg·min/mL, the Alpha ([4]; intravitreal dose 1.5 µg) was 0.0267 ± 0.0077 min⁻¹ and the Alpha_HL ([4]; intravitreal dose 1.5 µg) was 28 ± 7 min. It also gave a Beta ([4]; intravitreal dose 1.5 µg) of 0.0016 ± 0.0004 min⁻¹, a Beta_HL ([4]; intravitreal dose 1.5 µg) of 386 ± 116 min and a CL ([4]; intravitreal dose 1.5 µg) of 0.0027 ± 0.0003 mL/min. For the same molecule, the CLD2 ([4]; intravitreal dose 1.5 µg) was 0.0058 ± 0.0010 mL/min, the Cmax ([4]; intravitreal dose 1.5 µg) was 3260 ± 1350 ng/mL and the MRT ([4]; intravitreal dose 1.5 µg) was 9.08 ± 1.77 h. For the same molecule, the V2 ([4]; intravitreal dose 1.5 µg) was 0.75 ± 0.62 mL, the Vss ([4]; intravitreal dose 1.5 µg) was 1.48 ± 0.42 mL and the AUC ([4]; intravitreal dose 4.5 µg) was 1575 ± 164 µg·min/mL. For the same molecule, the Alpha ([4]; intravitreal dose 4.5 µg) was 0.0249 ± 0.0109 min⁻¹, the Alpha_HL ([4]; intravitreal dose 4.5 µg) was 31 ± 11 min and the Beta ([4]; intravitreal dose 4.5 µg) was 0.0017 ± 0.0003 min⁻¹. For the same molecule, the Beta_HL ([4]; intravitreal dose 4.5 µg) was 407 ± 58 min, the CL ([4]; intravitreal dose 4.5 µg) was 0.0029 ± 0.0003 mL/min and the CLD2 ([4]; intravitreal dose 4.5 µg) was 0.0054 ± 0.0026 mL/min. The Cmax ([4]; intravitreal dose 4.5 µg) was 10820 ± 1120 ng/mL, the MRT ([4]; intravitreal dose 4.5 µg) was 7.47 ± 0.917 h and the V2 ([4]; intravitreal dose 4.5 µg) was 0.87 ± 0.21 mL. It also gave a Vss ([4]; intravitreal dose 4.5 µg) of 1.29 ± 0.21 mL, an AUC ([4]; intravitreal dose 15 µg) of 4835 ± 861 µg·min/mL and an Alpha ([4]; intravitreal dose 15 µg) of 0.0358 ± 0.0084 min⁻¹. For the same molecule, the Alpha_HL ([4]; intravitreal dose 15 µg) was 20 ± 5 min, the Beta ([4]; intravitreal dose 15 µg) was 0.0014 ± 0.0004 min⁻¹ and the Beta_HL ([4]; intravitreal dose 15 µg) was 466 ± 98 min. The CL ([4]; intravitreal dose 15 µg) was 0.0032 ± 0.0005 mL/min, the CLD2 ([4]; intravitreal dose 15 µg) was 0.0130 ± 0.0026 mL/min and the Cmax ([4]; intravitreal dose 15 µg) was 25230 ± 3020 ng/mL. It also gave an MRT ([4]; intravitreal dose 15 µg) of 11.1 ± 3.07 h, a V2 ([4]; intravitreal dose 15 µg) of 1.46 ± 0.40 mL and a Vss ([4]; intravitreal dose 15 µg) of 2.07 ± 0.35 mL.

For `COc1ccc([C@@H]2CC(=O)c3c(O)cc(O)cc3O2)cc1O` [hesperetin, Hesperetin], the apparent permeability [1] is given as 2.52 ± 0.51 × 10^−6 cm/s, the Vd (in vivo) is given as 0.001 to 0.0015 L and the AUC (in vivo; 1.5 ug) is given as 2980 ng·h/mL. The Cmax (in vivo; 1.5 ug) was 1020 ± 200 ng/mL, the clearance (in vivo; 1.5 ug, CL) was 0.0093 ± 0.004 mL/min and the half-life (in vivo; 1.5 ug, T1/2) was 1.83 ± 0.467 h. It also gave an AUC (in vivo; 4.5 ug) of 7920 ng·h/mL, a Cmax (in vivo; 4.5 ug) of 4510 ± 570 ng/mL and a clearance (in vivo; 4.5 ug, CL) of 0.0096 ± 0.0015 mL/min. For the same molecule, the half-life (in vivo; 4.5 ug, T1/2) was 1.48 ± 0.233 h, the AUC (in vivo; 15 ug) was 29100 ng·h/mL and the Cmax (in vivo; 15 ug) was 14700 ± 1990 ng/mL. For the same molecule, the clearance (in vivo; 15 ug, CL) was 0.0086 ± 0.0007 mL/min, the half-life (in vivo; 15 ug, T1/2) was 1.38 ± 0.167 h and the clearance (in vivo; 15 ug, clearance rate (CL)) was 0.0086 to 0.0096 mL/min. The half-life (in vivo; 15 ug, elimination half-life (T1/2)) was 1.39 to 1.84 h.

In the case of glucosyl hesperidin [hesperidin G], the “log P” value [2] is listed as −3.2, the “log P” value ([2]; listed as Hesperidin G) is listed as less than −3.2 and the AUC ([4]; intravitreal dose 1.5 µg) is listed as 688 ± 47 µg·min/mL. It also gave an Alpha ([4]; intravitreal dose 1.5 µg) of 0.045 ± 0.019 min⁻¹, an Alpha_HL ([4]; intravitreal dose 1.5 µg) of 17 ± 6 min and a Beta ([4]; intravitreal dose 1.5 µg) of 0.0014 ± 0.0002 min⁻¹. It also gave a Beta_HL ([4]; intravitreal dose 1.5 µg) of 495 ± 66 min, a CL ([4]; intravitreal dose 1.5 µg) of 0.0022 ± 0.0002 mL/min and a CLD2 ([4]; intravitreal dose 1.5 µg) of 0.011 ± 0.002 mL/min. For the same molecule, the Cmax ([4]; intravitreal dose 1.5 µg) was 3790 ± 1060 ng/mL, the MRT ([4]; intravitreal dose 1.5 µg) was 10.8 ± 1.5 h and the Vss ([4]; intravitreal dose 1.5 µg) was 1.41 ± 0.14 mL. The AUC ([4]; intravitreal dose 4.5 µg) was 1811 ± 269 µg·min/mL, the Alpha ([4]; intravitreal dose 4.5 µg) was 0.028 ± 0.011 min⁻¹ and the Alpha_HL ([4]; intravitreal dose 4.5 µg) was 29 ± 16 min. It also gave a Beta ([4]; intravitreal dose 4.5 µg) of 0.0015 ± 0.0002 min⁻¹, a Beta_HL ([4]; intravitreal dose 4.5 µg) of 468 ± 82 min and a CL ([4]; intravitreal dose 4.5 µg) of 0.0025 ± 0.0004 mL/min. It also gave a CLD2 ([4]; intravitreal dose 4.5 µg) of 0.003 ± 0.001 mL/min, a Cmax ([4]; intravitreal dose 4.5 µg) of 20160 ± 6120 ng/mL and an MRT ([4]; intravitreal dose 4.5 µg) of 6.97 ± 0.35 h. It also gave a Vss ([4]; intravitreal dose 4.5 µg) of 1.05 ± 0.013 mL, an AUC ([4]; intravitreal dose 15 µg) of 6167 ± 168 µg·min/mL and an Alpha ([4]; intravitreal dose 15 µg) of 0.027 ± 0.007 min⁻¹. The Alpha_HL ([4]; intravitreal dose 15 µg) was 27 ± 8 min, the Beta ([4]; intravitreal dose 15 µg) was 0.0017 ± 0.0003 min⁻¹ and the Beta_HL ([4]; intravitreal dose 15 µg) was 414 ± 70 min. The CL ([4]; intravitreal dose 15 µg) was 0.0024 ± 0.0002 mL/min, the CLD2 ([4]; intravitreal dose 15 µg) was 0.007 ± 0.001 mL/min and the Cmax ([4]; intravitreal dose 15 µg) was 32050 ± 4390 ng/mL. For the same molecule, the MRT ([4]; intravitreal dose 15 µg) was 8.62 ± 1.33 h and the Vss ([4]; intravitreal dose 15 µg) was 1.25 ± 0.16 mL.
